{"source": "paper PMC13334477", "about": "(RSC Medicinal Chemistry, 2026)", "note": "Several values for one entry are separate records, joined by “and”; a condition that tells them apart may be missing. Equal entries are not always repeated.", "data": [{"tested_on": "HIVpro1-FT (anti-parallel DNA G4)", "assay": "FRET melting assay, HIVpro1-FT", "assay_type": "binding, HIV-1", "conditions": "+10µM ds26; ligand 1 μM, DNA 0.2 μM", "procedure": "(§1) Doubly labelled oligonucleotides with fluorescein and TAMRA were purchased lyophilized and RP-cartridge purified from Eurogentec (Kanaka Eurogentec, Seraing, Belgium). FRET melting experiments were run on Stratagene Mx3005P real-time PCR equipment in 96-well plates on the DNA sequences listed Table 1. Experiments were performed in 10 mM lithium cacodylate buffer (pH 7.2) and 10 mM KCl and 90 mM LiCl as previously described.[45,46] The DNA concentration was 0.2 μM. The stabilization (ΔT1/2) induced by compounds was calculated as the difference between the Tm of the nucleic acid alone and that measured with a ligand concentration of 1 μM. Data are presented as averages of three independent measurements, each conducted in duplicate (λexc = 492 nm, λem = 516 nm, T interval = 25–95 °C, ramp: 25 °C for 5 min, then 1 °C min^−1, measurements every 1 °C, 8× magnification of the fluorescence signal). The G4 selectivity of the ligands with respect to the duplex was evaluated by determining the Tm values in the presence of 0, 3 or 10 μM of the duplex competitor ds26.\n(§2) In this assay, we performed thermal denaturation experiments by heating and recording the fluorescence of DNA oligonucleotides doubly labelled with fluorescein and TAMRA fluorophores (Fig. 3 and S7). Ligand binding to the G4 stabilises the structure, resulting in an increase in the half-dissociation temperature of the structure (ΔT1/2). As a first approximation, the higher the ΔT1/2 (ΔT1/2 higher), the higher the affinity of the ligand for the target.[45]\n(§3) The fluorescently labeled oligonucleotides were dissolved at a concentration of 0.2 μM in 10 mM lithium cacodylate buffer (pH 7.2) with 10 mM KCl and 90 mM LiCl. […] E) Radar plot representation that summarizes the FRET-melting results (ΔT1/2 (°C)) for each ligand in the presence of HIVpro1-FT (green), HIVpro2-FT (grey), LTR4-FT (bleu), and Htel-FT (red). Data are the results of at least three independent experiments in which each data point was performed in duplicate.", "units": {"ΔT1/2 HIVpro1": "°C"}, "values": [{"smiles": "COc1ccc2c(ccc3c2cc2c4ccc(OC)cc4ccc2[n+]3-c2ccccc2)c1", "note": "[DBA1]", "ΔT1/2 HIVpro1": "4.4±0.7"}, {"smiles": "COC(=O)c1ccc(-[n+]2c3ccc4cc(OC)ccc4c3cc3c4ccc(OC)cc4ccc32)cc1", "note": "[DBA2]", "ΔT1/2 HIVpro1": "3.9±0.2"}, {"smiles": "COc1ccc(-[n+]2c3ccc4cc(OC)ccc4c3cc3c4ccc(OC)cc4ccc32)cc1", "note": "[DBA3]", "ΔT1/2 HIVpro1": "5.0±0.1"}, {"smiles": "COc1ccc2c(ccc3c2cc2c4ccc(OC)cc4ccc2[n+]3-c2ccc([N+](=O)[O-])cc2)c1", "note": "[DBA4]", "ΔT1/2 HIVpro1": "5.1±0.5"}, {"smiles": "c1ccc(-[n+]2c3ccc4ccccc4c3cc3c4ccccc4ccc32)cc1", "note": "[DBA5]", "ΔT1/2 HIVpro1": "3.6±0.04"}]}, {"tested_on": "HIVpro1-FT (anti-parallel DNA G4)", "assay": "FRET melting assay, HIVpro1-FT", "assay_type": "binding, HIV-1", "conditions": "No ds26; ligand 1 μM, DNA 0.2 μM", "procedure": "as §1, §2, §3", "values": [{"smiles": "COc1ccc2c(ccc3c2cc2c4ccc(OC)cc4ccc2[n+]3-c2ccccc2)c1", "note": "[DBA1]", "ΔT1/2 HIVpro1": "6.9±0.04 °C"}, {"smiles": "COC(=O)c1ccc(-[n+]2c3ccc4cc(OC)ccc4c3cc3c4ccc(OC)cc4ccc32)cc1", "note": "[DBA2]", "ΔT1/2 HIVpro1": "5.6±0.3 °C and 5.6 °C"}, {"smiles": "COc1ccc(-[n+]2c3ccc4cc(OC)ccc4c3cc3c4ccc(OC)cc4ccc32)cc1", "note": "[DBA3]", "ΔT1/2 HIVpro1": "6.3±0.7 °C and 6.3 °C"}, {"smiles": "COc1ccc2c(ccc3c2cc2c4ccc(OC)cc4ccc2[n+]3-c2ccc([N+](=O)[O-])cc2)c1", "note": "[DBA4]", "ΔT1/2 HIVpro1": "7.0±2.0 °C and 7 °C"}, {"smiles": "c1ccc(-[n+]2c3ccc4ccccc4c3cc3c4ccccc4ccc32)cc1", "note": "[DBA5]", "ΔT1/2 HIVpro1": "5.0±0.03 °C"}]}, {"target": "TG4T DNA G4 (parallel)", "assay": "Native ESI-MS, TG4T", "assay_type": "binding", "conditions": "10 μM DNA, 20 μM ligand, 100 mM ammonium acetate; read-out: Kd1 TG4T", "procedure": "(§4) Oligonucleotides were purchased lyophilized and RP-cartridge purified from Eurogentec (Kanaka Eurogentec, Seraing, Belgium), then buffer exchanged with ammonium acetate (5 M; Sigma-Aldrich, Saint-Quentin-Fallavier, France) using Amicon Ultra (3 K cut-off; Merck Millipore, Cork, Ireland). The concentrations of the initial stock solutions of DNA/RNA (∼1 mM) were measured by UV absorbance at 260 nm. Sample solutions were prepared by diluting the appropriate volume of oligonucleotide stock solutions to reach 10 μM of DNA/RNA and 20 μM of ligand, in 100 mM ammonium acetate. The solutions were incubated for 16 h at 4 °C before analysis by mass spectrometry. […] These parameters ensured a good signal intensity without disrupting noncovalent complexes, which was verified using d[G4T4G4]2 as a control. The presented spectra of all DNA/RNA used in this work (Fig. 5, S9 and S10) result from 8 min accumulations. The abundance of each species, M, M + 1L, M + 2L and M + 3L complexes, where M is a monomer oligonucleotide and L is a ligand, was determined from their peak area signals (A), from the sum of the −4, −5 and −6 charge states for DNA and from the sum of the −5, −6 and −7 charge states for RNA, assuming that their response factors are equal. The molar concentrations were then calculated knowing the total amount of oligonucleotide [M]tot: [drawing 1] [drawing 2] [drawing 3] [drawing 4] The concentration of the free ligand, [L]free, was determined from its total concentration [L]tot:[L]free = [L]tot − [M + 1L] − 2[M + 2L] − 3[M + 3L]Apparent consecutive dissociation constants (Kd1, Kd2 and Kd3) were calculated by using the following equations: [drawing 5] [drawing 6] [drawing 7]\n(§5) We further analysed the formation of the DBA/G4 complexes by native electrospray ionization mass spectrometry (ESI-MS). We initially attempted to analyze DBA binding to the primary G4 targets from HIV-1 (HIVpro1, HIVpro2, LTR4 and rLTR4 RNA). […] These sequences span the major G4 topological classes and provide a representative assessment of DBA binding across diverse G4 architectures. We also included two DNA duplex controls (DK100 and DK66) to evaluate binding selectivity. This ESI-MS approach enables direct determination of binding stoichiometry, quantification of each species in solution, and calculation of dissociation constants (Kd) from the relative abundances of free and bound forms.[88,97]\n(§6) In the ESI-MS conditions, the rLTR4 G4 (10 μM) forms a dimeric structure. […] Among the six DNA and RNA tested here (Fig. 5B, S9 and S10) only rLTR4 presented 1 : 3 G4/DBA complexes. In all cases but one, the 1 : 1 stoichiometry represents the major species in solution while for rLTR4 it is the 1 : 2 (green). […] For TG4T tetramolecular G4 or G4T4G4 bimolecular G4 only 1 : 1 and 1 : 2 complexes were detected (Fig. S9A and S10A). […] The weakest binding was obtained for the G4T4G4 antiparallel G4 and Htel sequence with Kd1s ranging from 11 μM for to 500 μM (Table 2).", "units": {"Kd": "µM"}, "values": [{"smiles": "COc1ccc2c(ccc3c2cc2c4ccc(OC)cc4ccc2[n+]3-c2ccccc2)c1", "note": "[DBA1]", "Kd": 14.7}, {"smiles": "COC(=O)c1ccc(-[n+]2c3ccc4cc(OC)ccc4c3cc3c4ccc(OC)cc4ccc32)cc1", "note": "[DBA2]", "Kd": 6.09}, {"smiles": "COc1ccc(-[n+]2c3ccc4cc(OC)ccc4c3cc3c4ccc(OC)cc4ccc32)cc1", "note": "[DBA3]", "Kd": 13.6}, {"smiles": "COc1ccc2c(ccc3c2cc2c4ccc(OC)cc4ccc2[n+]3-c2ccc([N+](=O)[O-])cc2)c1", "note": "[DBA4]", "Kd": 5.42}, {"smiles": "c1ccc(-[n+]2c3ccc4ccccc4c3cc3c4ccccc4ccc32)cc1", "note": "[DBA5]", "Kd": 21.6}]}, {"target": "TG4T DNA G4 (parallel)", "assay": "Native ESI-MS, TG4T", "assay_type": "binding", "conditions": "10 μM DNA, 20 μM ligand, 100 mM ammonium acetate; read-out: Kd2 TG4T", "procedure": "as §4, §5, §6", "units": {"Kd": "µM"}, "values": [{"smiles": "COc1ccc2c(ccc3c2cc2c4ccc(OC)cc4ccc2[n+]3-c2ccccc2)c1", "note": "[DBA1]", "Kd": 46}, {"smiles": "COC(=O)c1ccc(-[n+]2c3ccc4cc(OC)ccc4c3cc3c4ccc(OC)cc4ccc32)cc1", "note": "[DBA2]", "Kd": 25.9}, {"smiles": "COc1ccc(-[n+]2c3ccc4cc(OC)ccc4c3cc3c4ccc(OC)cc4ccc32)cc1", "note": "[DBA3]", "Kd": 52.2}, {"smiles": "COc1ccc2c(ccc3c2cc2c4ccc(OC)cc4ccc2[n+]3-c2ccc([N+](=O)[O-])cc2)c1", "note": "[DBA4]", "Kd": 22.7}, {"smiles": "c1ccc(-[n+]2c3ccc4ccccc4c3cc3c4ccccc4ccc32)cc1", "note": "[DBA5]", "Kd": 89.4}]}]}
